Assay [1] addresses NPC1-like intracellular cholesterol transporter 1 (Rattus norvegicus, UniProt Q6T3U3). As to the kind of experiment: Displacement of [35S](2S,3S,4S,5R,6S)-6-(4-((2S,3R)-3-((S)-3-(4-fluorophenyl)-3-hydroxypropyl)-1-(4-(3-(methylsulfonamido)prop-1-ynyl)phenyl)-4-oxoazetidin-2-yl)phenoxy)-3,4,5-trihydroxytetrahydro-2H-pyran-2-carboxylic acid from NPC1L1 in rat enterocyte brush border membrane. (In general: Displacement assays read how much labelled ligand stays bound in the presence of the test substance.)

The target of assay [2] is T1, NPC1-like intracellular cholesterol transporter 1 (Homo sapiens, UniProt Q9UHC9).
T1 sequence (Q9UHC9 whole entry): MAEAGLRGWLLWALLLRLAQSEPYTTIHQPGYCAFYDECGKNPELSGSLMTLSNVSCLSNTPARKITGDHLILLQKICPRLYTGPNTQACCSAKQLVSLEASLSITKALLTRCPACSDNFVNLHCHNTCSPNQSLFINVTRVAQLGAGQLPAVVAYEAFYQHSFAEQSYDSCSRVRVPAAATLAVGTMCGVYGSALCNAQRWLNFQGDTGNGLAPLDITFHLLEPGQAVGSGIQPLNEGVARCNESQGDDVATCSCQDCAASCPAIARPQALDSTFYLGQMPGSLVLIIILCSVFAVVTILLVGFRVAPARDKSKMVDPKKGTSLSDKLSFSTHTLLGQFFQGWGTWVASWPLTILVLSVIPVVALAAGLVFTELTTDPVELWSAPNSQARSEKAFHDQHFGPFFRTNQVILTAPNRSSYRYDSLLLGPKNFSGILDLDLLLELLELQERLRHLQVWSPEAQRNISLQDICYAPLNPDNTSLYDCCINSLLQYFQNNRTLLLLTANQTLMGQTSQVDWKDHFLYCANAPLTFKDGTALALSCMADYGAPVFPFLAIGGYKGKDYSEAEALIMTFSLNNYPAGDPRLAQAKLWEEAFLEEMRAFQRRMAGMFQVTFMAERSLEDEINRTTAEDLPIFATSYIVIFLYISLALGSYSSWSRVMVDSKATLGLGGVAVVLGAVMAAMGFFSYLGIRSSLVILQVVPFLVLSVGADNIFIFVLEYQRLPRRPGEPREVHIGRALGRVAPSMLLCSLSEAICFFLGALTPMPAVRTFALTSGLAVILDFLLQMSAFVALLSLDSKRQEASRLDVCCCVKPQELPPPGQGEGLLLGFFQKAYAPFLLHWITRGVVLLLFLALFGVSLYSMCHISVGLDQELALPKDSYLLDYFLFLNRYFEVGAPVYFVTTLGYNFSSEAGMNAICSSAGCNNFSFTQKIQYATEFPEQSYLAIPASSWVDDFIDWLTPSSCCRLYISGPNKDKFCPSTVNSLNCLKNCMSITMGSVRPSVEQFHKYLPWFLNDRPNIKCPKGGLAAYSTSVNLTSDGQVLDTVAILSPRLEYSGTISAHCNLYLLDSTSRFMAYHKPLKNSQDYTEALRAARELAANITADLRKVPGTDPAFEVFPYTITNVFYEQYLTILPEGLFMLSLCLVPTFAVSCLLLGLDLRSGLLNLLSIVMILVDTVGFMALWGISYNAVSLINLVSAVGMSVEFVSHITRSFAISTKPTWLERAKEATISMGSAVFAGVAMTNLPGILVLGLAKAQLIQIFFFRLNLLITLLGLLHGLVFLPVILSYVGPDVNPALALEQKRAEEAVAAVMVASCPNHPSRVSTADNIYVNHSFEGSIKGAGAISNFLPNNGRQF
As to the kind of experiment: Displacement of [35S](2S,3S,4S,5R,6S)-6-(4-((2S,3R)-3-((S)-3-(4-fluorophenyl)-3-hydroxypropyl)-1-(4-(3-(methylsulfonamido)prop-1-ynyl)phenyl)-4-oxoazetidin-2-yl)phenoxy)-3,4,5-trihydroxytetrahydro-2H-pyran-2-carboxylic acid from NPC1L1 in human enterocyte brush border membrane.

Assay [3] in a line: Displacement of [35S](2S,3S,4S,5R,6S)-6-(4-((2S,3R)-3-((S)-3-(4-fluorophenyl)-3-hydroxypropyl)-1-(4-(3-(methylsulfonamido)prop-1-ynyl)phenyl)-4-oxoazetidin-2-yl)phenoxy)-3,4,5-trihydroxytetrahydro-2H-pyran-2-carboxylic acid from NPC1L1 in pig enterocyte brush border membrane. Also on record: species or system Sus scrofa.
Assay [4] concerns the target T1, NPC1-like intracellular cholesterol transporter 1. The experiment in a line: Displacement of [35S](2S,3S,4S,5R,6S)-6-(4-((2S,3R)-3-((S)-3-(4-fluorophenyl)-3-hydroxypropyl)-1-(4-(3-(methylsulfonamido)prop-1-ynyl)phenyl)-4-oxoazetidin-2-yl)phenoxy)-3,4,5-trihydroxytetrahydro-2H-pyran-2-carboxylic acid from human recombinant NPC1L1 expressed in HEK293 cells. The assay is classed as cell-based.

Assay [5] in a line: Displacement of [35S](2S,3S,4S,5R,6S)-6-(4-((2S,3R)-3-((S)-3-(4-fluorophenyl)-3-hydroxypropyl)-1-(4-(3-(methylsulfonamido)prop-1-ynyl)phenyl)-4-oxoazetidin-2-yl)phenoxy)-3,4,5-trihydroxytetrahydro-2H-pyran-2-carboxylic acid from NPC1L1 in hamster enterocyte brush border membrane. Also noted: species or system Cricetinae.
A short description of assay [6]: Displacement of [35S](2S,3S,4S,5R,6S)-6-(4-((2S,3R)-3-((S)-3-(4-fluorophenyl)-3-hydroxypropyl)-1-(4-(3-(methylsulfonamido)prop-1-ynyl)phenyl)-4-oxoazetidin-2-yl)phenoxy)-3,4,5-trihydroxytetrahydro-2H-pyran-2-carboxylic acid from NPC1L1 in guinea pig enterocyte brush border membrane. Also noted: species or system Cavia porcellus.

Molecules are shown by their SMILES.

The IC50 is the concentration at which inhibition is half-maximal.

Chain of NPC1-like intracellular cholesterol transporter 1 (Rattus norvegicus, UniProt Q6T3U3) (Q6T3U3 21-1331 limits assumed): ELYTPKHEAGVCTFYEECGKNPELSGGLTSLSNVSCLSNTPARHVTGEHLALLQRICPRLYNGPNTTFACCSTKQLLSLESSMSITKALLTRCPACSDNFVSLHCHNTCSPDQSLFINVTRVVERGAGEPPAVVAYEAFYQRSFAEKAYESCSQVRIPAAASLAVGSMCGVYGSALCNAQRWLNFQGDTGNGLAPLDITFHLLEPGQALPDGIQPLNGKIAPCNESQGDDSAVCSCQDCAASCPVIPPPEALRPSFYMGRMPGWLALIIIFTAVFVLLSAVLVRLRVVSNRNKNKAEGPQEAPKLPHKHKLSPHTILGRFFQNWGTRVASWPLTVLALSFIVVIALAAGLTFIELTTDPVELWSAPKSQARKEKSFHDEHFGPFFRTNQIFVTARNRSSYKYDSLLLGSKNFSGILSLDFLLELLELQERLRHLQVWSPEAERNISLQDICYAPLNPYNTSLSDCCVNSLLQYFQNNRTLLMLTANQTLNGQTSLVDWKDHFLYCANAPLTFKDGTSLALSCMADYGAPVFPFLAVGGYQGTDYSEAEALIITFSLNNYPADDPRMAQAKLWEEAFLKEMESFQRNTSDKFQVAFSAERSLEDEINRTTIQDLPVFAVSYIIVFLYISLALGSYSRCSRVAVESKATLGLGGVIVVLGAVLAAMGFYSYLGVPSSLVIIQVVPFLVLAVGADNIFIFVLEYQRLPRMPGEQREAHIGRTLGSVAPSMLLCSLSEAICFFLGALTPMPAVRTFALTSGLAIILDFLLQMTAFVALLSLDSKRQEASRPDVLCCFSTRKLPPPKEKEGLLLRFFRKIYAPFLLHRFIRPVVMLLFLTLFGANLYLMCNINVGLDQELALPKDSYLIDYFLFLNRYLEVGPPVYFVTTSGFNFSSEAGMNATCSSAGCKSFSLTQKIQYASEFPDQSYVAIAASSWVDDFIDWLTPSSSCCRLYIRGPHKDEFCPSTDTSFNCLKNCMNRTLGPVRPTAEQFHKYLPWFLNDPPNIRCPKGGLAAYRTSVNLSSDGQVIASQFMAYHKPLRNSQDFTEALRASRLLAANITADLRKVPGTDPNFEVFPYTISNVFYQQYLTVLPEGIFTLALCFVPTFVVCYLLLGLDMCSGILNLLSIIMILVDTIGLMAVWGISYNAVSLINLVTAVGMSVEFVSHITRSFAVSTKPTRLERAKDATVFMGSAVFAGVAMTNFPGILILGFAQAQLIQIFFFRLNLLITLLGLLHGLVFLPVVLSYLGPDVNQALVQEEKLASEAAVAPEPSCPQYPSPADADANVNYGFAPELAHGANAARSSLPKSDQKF

With `O=C([C@@H]1C[C@@H](c2ccccc2)CN1C(=O)c1ccccc1)N1CCC2(C=Cc3ccccc32)CC1`, the IC50 is 34000 nM in assay [1]; 5300 nM in assay [2]; more than 500000 nM in assay [3]; 660 nM in assay [4]; 62000 nM in assay [5]; 118000 nM in assay [6].
In the case of `O=C(O)[C@H]1O[C@@H](Oc2ccc([C@@H]3[C@@H](CC[C@H](O)c4ccc(F)cc4)C(=O)N3c3ccc(F)cc3)cc2)[C@H](O)[C@@H](O)[C@@H]1O`, the IC50 was found to be 580 nM in assay [1]; 300 nM in assay [2]; 320 nM in assay [3]; 300 nM in assay [4]; 650 nM in assay [5]; 3300 nM in assay [6].
For the molecule `CC(C)(C)c1ccc(C(=O)N2CCC3(CC2)C(=O)N(CC(=O)N2CCCCC2)CN3c2ccccc2)cc1`, the half-maximal inhibitory concentration (IC50) was 110000 nM in assay [1]; 10000 nM in assay [2]; more than 500000 nM in assay [3]; 2500 nM in assay [4]; 41000 nM in assay [5]; 470000 nM in assay [6].
For `CS(=O)(=O)NCC#CN1C(=O)[C@H](CC[C@H](O)c2ccc(F)cc2)[C@H]1c1ccc(O[C@@H]2O[C@H](C(=O)O)[C@@H](O)[C@H](O)[C@H]2O)cc1`, the IC50 in assay [1] was 16 nM; in assay [2], 20 nM; in assay [3], 13 nM; in assay [4], 7 nM; in assay [5], 22 nM; in assay [6], 71 nM.

These data come from ChEMBL document CHEMBL1136903, “Spiroimidazolidinone NPC1L1 inhibitors. 1: Discovery by 3D-similarity-based virtual screening” (Bioorg Med Chem Lett, 2009).
